# From BindingDB's records for doi:10.1016/0922-4106(94)90227-5 (Novo Nordisk, 1994)
# Legend:
# [1] = molecular target: Metabotropic glutamate receptor 4 (Rattus norvegicus, UniProt P31423)
# [2] = molecular target: Metabotropic glutamate receptor 2 (Homo sapiens, UniProt Q14416)
# [3] = molecular target: Glutamate receptor 3 (Rattus norvegicus, UniProt P19492)
# [4] = molecular target: Glutamate receptor ionotropic, kainate 1 (Rattus norvegicus, UniProt P22756)
# [5] = molecular target: Glutamate receptor ionotropic, NMDA 1 (Rattus norvegicus, UniProt P35439)
# [6] = molecular target: Metabotropic glutamate receptor 1 (Rattus norvegicus, UniProt P23385)
# Metabotropic glutamate receptor 1, sequence (P23385 whole entry): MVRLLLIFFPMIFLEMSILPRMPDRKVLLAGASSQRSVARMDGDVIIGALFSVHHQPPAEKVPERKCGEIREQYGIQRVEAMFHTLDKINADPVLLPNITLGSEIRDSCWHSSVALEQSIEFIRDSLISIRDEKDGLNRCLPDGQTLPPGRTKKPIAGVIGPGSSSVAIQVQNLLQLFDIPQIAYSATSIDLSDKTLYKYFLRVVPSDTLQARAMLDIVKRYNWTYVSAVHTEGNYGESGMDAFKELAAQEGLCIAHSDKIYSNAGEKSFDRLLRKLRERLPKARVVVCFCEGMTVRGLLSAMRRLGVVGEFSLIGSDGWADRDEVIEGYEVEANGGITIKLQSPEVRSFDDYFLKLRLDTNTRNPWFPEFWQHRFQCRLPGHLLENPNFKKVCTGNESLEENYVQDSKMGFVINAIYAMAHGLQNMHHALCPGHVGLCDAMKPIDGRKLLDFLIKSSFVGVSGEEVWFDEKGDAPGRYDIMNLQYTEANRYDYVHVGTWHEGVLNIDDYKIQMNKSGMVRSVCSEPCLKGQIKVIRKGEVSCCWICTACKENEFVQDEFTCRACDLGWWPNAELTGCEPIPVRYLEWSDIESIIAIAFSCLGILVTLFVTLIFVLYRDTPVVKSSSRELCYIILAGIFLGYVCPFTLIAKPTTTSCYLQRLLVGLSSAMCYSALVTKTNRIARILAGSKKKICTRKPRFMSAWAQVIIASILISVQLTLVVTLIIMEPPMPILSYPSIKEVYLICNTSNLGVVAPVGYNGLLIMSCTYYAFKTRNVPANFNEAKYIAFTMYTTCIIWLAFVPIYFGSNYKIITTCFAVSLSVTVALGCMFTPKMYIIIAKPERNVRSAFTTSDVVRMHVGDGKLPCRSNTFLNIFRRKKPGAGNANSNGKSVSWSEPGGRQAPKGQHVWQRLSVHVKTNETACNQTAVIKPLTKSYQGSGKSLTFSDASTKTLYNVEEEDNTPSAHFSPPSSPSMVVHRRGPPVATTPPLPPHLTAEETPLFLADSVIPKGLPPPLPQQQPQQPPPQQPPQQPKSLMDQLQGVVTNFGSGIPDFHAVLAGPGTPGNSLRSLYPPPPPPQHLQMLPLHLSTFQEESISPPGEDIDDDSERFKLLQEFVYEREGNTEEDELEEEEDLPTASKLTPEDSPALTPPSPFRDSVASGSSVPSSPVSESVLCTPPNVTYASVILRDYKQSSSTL
# Glutamate receptor 3, sequence (P19492 whole entry): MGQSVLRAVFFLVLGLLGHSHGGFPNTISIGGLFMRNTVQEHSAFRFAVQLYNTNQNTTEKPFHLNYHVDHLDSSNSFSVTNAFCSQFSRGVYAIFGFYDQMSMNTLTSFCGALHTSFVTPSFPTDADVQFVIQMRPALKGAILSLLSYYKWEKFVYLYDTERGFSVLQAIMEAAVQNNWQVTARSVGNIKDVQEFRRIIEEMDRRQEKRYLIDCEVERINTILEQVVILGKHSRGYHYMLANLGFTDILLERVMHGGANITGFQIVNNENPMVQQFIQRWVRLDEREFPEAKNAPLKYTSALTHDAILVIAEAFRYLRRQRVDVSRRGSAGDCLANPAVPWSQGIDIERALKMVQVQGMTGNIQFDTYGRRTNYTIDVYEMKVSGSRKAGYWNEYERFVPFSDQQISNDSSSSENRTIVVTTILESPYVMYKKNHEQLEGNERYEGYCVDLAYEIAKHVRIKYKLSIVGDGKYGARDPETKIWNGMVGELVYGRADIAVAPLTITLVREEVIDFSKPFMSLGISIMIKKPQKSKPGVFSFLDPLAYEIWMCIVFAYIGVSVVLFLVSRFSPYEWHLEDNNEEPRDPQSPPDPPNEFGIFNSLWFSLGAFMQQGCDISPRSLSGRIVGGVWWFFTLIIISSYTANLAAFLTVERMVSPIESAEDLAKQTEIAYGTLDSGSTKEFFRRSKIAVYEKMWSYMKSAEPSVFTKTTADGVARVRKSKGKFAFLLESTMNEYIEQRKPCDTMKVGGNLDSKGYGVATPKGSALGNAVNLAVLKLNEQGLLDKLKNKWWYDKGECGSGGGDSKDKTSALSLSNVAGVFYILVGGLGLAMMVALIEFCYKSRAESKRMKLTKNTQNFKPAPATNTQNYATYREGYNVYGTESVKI
# Glutamate receptor ionotropic, kainate 1, sequence (P22756 whole entry): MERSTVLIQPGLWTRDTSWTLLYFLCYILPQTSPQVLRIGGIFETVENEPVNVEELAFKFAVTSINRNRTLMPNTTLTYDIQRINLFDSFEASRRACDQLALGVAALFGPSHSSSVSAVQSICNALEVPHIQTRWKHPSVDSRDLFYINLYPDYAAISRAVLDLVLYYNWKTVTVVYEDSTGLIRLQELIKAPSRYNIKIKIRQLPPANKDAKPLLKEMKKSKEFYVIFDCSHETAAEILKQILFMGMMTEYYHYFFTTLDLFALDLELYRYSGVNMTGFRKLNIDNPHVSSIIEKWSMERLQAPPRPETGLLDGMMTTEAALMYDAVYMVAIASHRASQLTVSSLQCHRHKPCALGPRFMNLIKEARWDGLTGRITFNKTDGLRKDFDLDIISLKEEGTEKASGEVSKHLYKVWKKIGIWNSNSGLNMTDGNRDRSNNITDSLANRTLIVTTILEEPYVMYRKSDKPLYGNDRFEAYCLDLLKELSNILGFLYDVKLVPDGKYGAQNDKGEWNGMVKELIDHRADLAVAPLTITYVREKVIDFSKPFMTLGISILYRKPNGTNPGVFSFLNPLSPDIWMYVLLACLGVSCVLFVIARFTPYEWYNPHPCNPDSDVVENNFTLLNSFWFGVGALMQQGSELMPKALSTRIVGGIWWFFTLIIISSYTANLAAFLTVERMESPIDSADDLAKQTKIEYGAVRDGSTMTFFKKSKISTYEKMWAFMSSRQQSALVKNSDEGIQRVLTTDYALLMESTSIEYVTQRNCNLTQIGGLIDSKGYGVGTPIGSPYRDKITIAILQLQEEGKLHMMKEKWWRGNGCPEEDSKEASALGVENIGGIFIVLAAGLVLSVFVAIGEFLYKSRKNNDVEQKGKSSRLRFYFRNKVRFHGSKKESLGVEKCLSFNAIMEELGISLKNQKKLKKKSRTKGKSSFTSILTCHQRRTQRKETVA
# Metabotropic glutamate receptor 4, sequence (P31423 whole entry): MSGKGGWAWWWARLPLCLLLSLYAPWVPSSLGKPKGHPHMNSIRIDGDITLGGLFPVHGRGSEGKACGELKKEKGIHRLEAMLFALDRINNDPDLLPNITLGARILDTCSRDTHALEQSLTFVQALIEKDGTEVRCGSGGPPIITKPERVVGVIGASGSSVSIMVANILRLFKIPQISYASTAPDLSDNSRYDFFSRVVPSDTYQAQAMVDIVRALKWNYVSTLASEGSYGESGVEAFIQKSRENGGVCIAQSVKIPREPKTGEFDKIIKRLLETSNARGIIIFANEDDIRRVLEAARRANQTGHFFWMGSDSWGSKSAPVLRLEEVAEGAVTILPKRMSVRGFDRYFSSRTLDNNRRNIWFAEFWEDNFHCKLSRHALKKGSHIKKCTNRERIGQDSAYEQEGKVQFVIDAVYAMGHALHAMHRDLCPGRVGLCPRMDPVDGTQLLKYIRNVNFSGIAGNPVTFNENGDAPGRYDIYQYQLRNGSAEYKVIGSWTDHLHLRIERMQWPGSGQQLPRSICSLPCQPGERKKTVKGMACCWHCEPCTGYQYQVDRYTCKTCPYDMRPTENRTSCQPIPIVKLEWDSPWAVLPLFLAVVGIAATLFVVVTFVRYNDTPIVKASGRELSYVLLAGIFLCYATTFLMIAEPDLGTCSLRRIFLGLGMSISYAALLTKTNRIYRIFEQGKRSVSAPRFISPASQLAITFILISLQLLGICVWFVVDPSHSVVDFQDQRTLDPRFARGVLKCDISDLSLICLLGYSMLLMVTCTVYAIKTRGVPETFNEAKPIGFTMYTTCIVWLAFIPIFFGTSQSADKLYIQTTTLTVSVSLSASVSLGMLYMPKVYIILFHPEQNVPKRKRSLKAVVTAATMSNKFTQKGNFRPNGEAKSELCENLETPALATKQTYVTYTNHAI
# Metabotropic glutamate receptor 2, sequence (Q14416 whole entry): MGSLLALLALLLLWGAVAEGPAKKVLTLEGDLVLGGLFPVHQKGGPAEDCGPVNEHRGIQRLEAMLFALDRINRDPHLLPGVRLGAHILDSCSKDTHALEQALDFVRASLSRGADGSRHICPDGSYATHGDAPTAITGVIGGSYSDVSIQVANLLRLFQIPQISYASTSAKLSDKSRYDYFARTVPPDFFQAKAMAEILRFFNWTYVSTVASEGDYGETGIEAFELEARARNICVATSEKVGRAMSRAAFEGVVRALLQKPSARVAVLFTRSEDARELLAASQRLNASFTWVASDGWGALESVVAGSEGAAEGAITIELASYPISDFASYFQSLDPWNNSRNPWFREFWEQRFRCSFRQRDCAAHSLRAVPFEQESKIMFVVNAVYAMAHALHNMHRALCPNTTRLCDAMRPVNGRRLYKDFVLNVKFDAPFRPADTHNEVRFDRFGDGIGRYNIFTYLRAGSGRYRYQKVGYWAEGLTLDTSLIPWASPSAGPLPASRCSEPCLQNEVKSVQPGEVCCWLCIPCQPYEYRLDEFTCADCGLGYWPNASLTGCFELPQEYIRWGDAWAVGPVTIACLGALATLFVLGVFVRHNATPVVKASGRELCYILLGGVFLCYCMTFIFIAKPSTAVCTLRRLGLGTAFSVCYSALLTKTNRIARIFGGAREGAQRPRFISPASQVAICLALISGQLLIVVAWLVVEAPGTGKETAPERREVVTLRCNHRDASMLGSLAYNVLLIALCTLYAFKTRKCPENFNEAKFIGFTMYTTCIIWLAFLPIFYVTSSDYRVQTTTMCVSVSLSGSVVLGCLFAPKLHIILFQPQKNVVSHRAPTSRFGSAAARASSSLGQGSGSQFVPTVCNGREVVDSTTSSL
Compound,Ki [1],Ki [2],Ki [3],Ki [4],Ki [5],Ki [6]
C[C@@](N)(C(=O)O)c1ccc(C(=O)O)cc1 (racemic),> 10 µM,> 10 µM,> 10 µM,> 10 µM,> 10 µM,> 10 µM
N[C@H](C(=O)O)c1ccc(O)c(C(=O)O)c1 [3C4HPG],> 10 µM,> 10 µM,> 10 µM,> 10 µM,> 10 µM,> 10 µM
N[C@H](C(=O)O)c1ccc(C(=O)O)cc1 [4-((S)-Amino-carboxy-methyl)-benzoic acid],> 10 µM,> 10 µM,> 10 µM,> 10 µM,> 10 µM,> 10 µM
NC(C(=O)O)c1ccc(C(=O)O)cc1 (centres undefined) [4-(Amino-carboxy-methyl)-benzoic acid],> 10 µM,> 10 µM,,,,> 10 µM

# Other lines, results leading:
Ki [1],Ki [2],Ki [3],Ki [4],Ki [5],Ki [6],Compound
> 10 µM,> 10 µM,> 10 µM,> 10 µM,> 10 µM,> 10 µM,N[C@@H](C(=O)O)c1cccc(O)c1 [(R)-3-Hydroxyphenylglyci]
> 10 µM,> 10 µM,> 10 µM,> 10 µM,> 10 µM,> 10 µM,N[C@H](C(=O)O)c1cccc(O)c1 [(S)-3-Hydroxyphenylglycine]
> 10 µM,> 10 µM,> 10 µM,> 10 µM,> 10 µM,> 10 µM,N[C@@H](C(=O)O)c1ccc(C(=O)O)cc1 [(S)-4CPG]
> 10 µM,> 10 µM,,> 10 µM,> 10 µM,> 10 µM,N[C@@H](C(=O)O)c1ccc(O)c(C(=O)O)c1 [CB7394016]
